Measured values as given in patent US11401277B2, “Anti-bacterial heterocyclic compounds and their synthesis” (Bugworks Research, Inc., priority 2017, dated 2022).
≈ marks a conversion by molar mass, not a printed value. Where “and” joins values, the source holds several entries; their conditions need not be identical. Identical values can stand only once. Like-named read-outs stand apart in the source and are kept apart here.

Tests used:
[1] = In vivo pharmacokinetic (PK) studies in rats; design: species or system Sprague-Dawley (SD) rats; settings: Sprague-Dawley, rat, plasma; for Vd: iv; for bioavailability: po, read-out: Bioavailability* (F, %); for clearance: read-out: CLp (converted)
[2] = tested on: clinical strains of five Gram-negative bacterial species; experiment: Antibacterial susceptibility studies, overall statement; type: cell-based; settings: range over 5 Gram-negative species
From the text: The standard drugs ciprofloxacin and meropenem were used as positive controls in the study.

[3] = tested on: K. pneumoniae [ATCC13883]; experiment: Neutropenic Thigh Infection Model in Rat, K. pneumoniae; type: in vivo; settings: for MEAN ± SD (Log10 CFU/g thigh) / Mean Log 10 CFU/thigh reduction (wrt 2 h PI control: 5.04 Log10CFU/g thigh) / Log10 CFU/g thigh: i.v., 1 h infusion; for Log10 CFU/g thigh: individual animals, 10 hr post infection

Cn1c(=O)ccc2ccc(F)c(OCCNC[C@H]3CN(c4cnc5c(n4)NC(=O)CO5)C(=O)O3)c21 [Compound 2, (S)-6-(5-(((2-((7-fluoro-1-methyl-2-oxo-1,2-dihydroquinolin-8-yl)oxy)ethyl)amino)methyl)-2-oxooxazolidin-3-yl)-2H-pyrazino[2,3-b][1,4]oxazin-3(4H)-one]
Cmax ([1]; 100 mg/kg, IV (1 h infusion), male SD rats): 93400 ± 4400 ng/mL | Cmax ([1]; 150 mg/kg, IV (1 h infusion), male SD rats): 112000 ± 7580 ng/mL | Vd ([1]; male, 5 mg/kg, IV, read-out: Vd): 6.4 ± 1.07 L/kg | Vd ([1]; male, 5 mg/kg, IV, read-out: Vss): 1.09 ± 0.13 L/kg | Vd ([1]; male, 30 mg/kg, IV, read-out: Vd): 4.94 ± 1.8 L/kg | Vd ([1]; male, 30 mg/kg, IV, read-out: Vss): 0.62 ± 0.05 L/kg | Vd ([1]; male, 100 mg/kg, IV, read-out: Vd): 5.57 ± 0.56 L/kg | Vd ([1]; male, 100 mg/kg, IV, read-out: Vss): 0.69 ± 0.02 L/kg | Vd ([1]; male, 150 mg/kg, IV, read-out: Vd): 5.38 ± 1.1 L/kg | Vd ([1]; male, 150 mg/kg, IV, read-out: Vss): 0.73 ± 0.07 L/kg | bioavailability ([1]; male, 10 mg/kg): 33.3 ± 3.1% | bioavailability ([1]; male, 30 mg/kg): 66.8 ± 14.4% | bioavailability ([1]; male, 100 mg/kg): 38.4 ± 12.4% | bioavailability ([1]; male, 300 mg/kg): 24.2 ± 15.6% | AUC(0-inf) ([1]; male, 5 mg/kg, IV): 1870 ± 350 ng·h/mL | AUC(0-t) ([1]; male, 5 mg/kg, IV): 1870 ± 350 ng·h/mL | Tmax ([1]; male, 5 mg/kg, IV): 0.76 ± 0.02 h | half-life ([1]; male, 5 mg/kg, IV): 1.53 ± 0.07 h | clearance ([1]; male, 5 mg/kg, IV): 45.7 mL/min/kg | AUC(0-inf) ([1]; male, 10 mg/kg PO): 1240 ± 100 ng·h/mL | Tmax ([1]; male, 10 mg/kg PO): 0.25 h | half-life ([1]; male, 10 mg/kg PO): 1.84 ± 0.15 h | AUC(0-inf) ([1]; male, 30 mg/kg, IV): 21800 ± 150 ng·h/mL | AUC(0-t) ([1]; male, 30 mg/kg, IV): 21780 ± 150 ng·h/mL | Tmax ([1]; male, 30 mg/kg, IV): 1 h | half-life ([1]; male, 30 mg/kg, IV): 2.45 ± 0.78 h | clearance ([1]; male, 30 mg/kg, IV): 23 mL/min/kg | AUC(0-inf) ([1]; male, 30 mg/kg, PO): 7540 ± 1620 ng·h/mL | Cmax ([1]; male, 30 mg/kg, PO): 8500 ± 2400 ng/mL | Tmax ([1]; male, 30 mg/kg, PO): 0.5 h | half-life ([1]; male, 30 mg/kg, PO): 1.7 ± 0.5 h | AUC(0-inf) ([1]; male, 100 mg/kg, IV): 118000 ± 13600 ng·h/mL | AUC(0-t) ([1]; male, 100 mg/kg, IV): 118000 ± 13600 ng·h/mL | Tmax ([1]; male, 100 mg/kg, IV): 1 h | half-life ([1]; male, 100 mg/kg, IV): 4.53 ± 0.12 h | clearance ([1]; male, 100 mg/kg, IV): 14.2 mL/min/kg | AUC(0-inf) ([1]; male, 100 mg/kg, PO): 14400 ± 4600 ng·h/mL | Cmax ([1]; male, 100 mg/kg, PO): 9790 ± 1100 ng/mL | Tmax ([1]; male, 100 mg/kg, PO): 0.33 ± 0.14 h | half-life ([1]; male, 100 mg/kg, PO): 5.32 ± 2.1 h | AUC(0-inf) ([1]; male, 150 mg/kg, IV): 172000 ± 10700 ng·h/mL | AUC(0-t) ([1]; male, 150 mg/kg, IV): 172000 ± 10800 ng·h/mL | Tmax ([1]; male, 150 mg/kg, IV): 2 h | half-life ([1]; male, 150 mg/kg, IV): 4.24 ± 0.67 h | clearance ([1]; male, 150 mg/kg, IV): 14.5 mL/min/kg | AUC(0-inf) ([1]; male, 300 mg/kg, PO): 27200 ± 17500 ng·h/mL | Cmax ([1]; male, 300 mg/kg, PO): 11100 ± 3100 ng/mL | Tmax ([1]; male, 300 mg/kg, PO): 1 h | half-life ([1]; male, 300 mg/kg, PO): 2.2 h | MIC90 [2]: 0.25 to 1 µg/mL (≈ 0.516 to 2.06 µM) | MEAN ± SD (Log10 CFU/g thigh) ([3]; 3 mg/kg): 3.91 ± 0.04 Log10 CFU/g thigh | Mean Log 10 CFU/thigh reduction (wrt 2 h PI control: 5.04 Log10CFU/g thigh) ([3]; 3 mg/kg): 1.13 Log 10 CFU/thigh | Log10 CFU/g thigh ([3]; 3 mg/kg): 3.95 Log10 CFU/g thigh and 3.87 Log10 CFU/g thigh and 3.91 Log10 CFU/g thigh | MEAN ± SD (Log10 CFU/g thigh) ([3]; 10 mg/kg): 3.61 ± 0.31 Log10 CFU/g thigh | Mean Log 10 CFU/thigh reduction (wrt 2 h PI control: 5.04 Log10CFU/g thigh) ([3]; 10 mg/kg): 1.43 Log 10 CFU/thigh | Log10 CFU/g thigh ([3]; 10 mg/kg): 3.74 Log10 CFU/g thigh and 3.26 Log10 CFU/g thigh and 3.84 Log10 CFU/g thigh | efficacy with respect to 2 h Post Infection (PI) control (in words) ([3]; 3, 10 and 30 mg/kg, rat thigh K. pneumoniae): significant dose dependent bactericidal efficacy
